# Measurements as given in patent publication US5614520A, “2-arylthiazole derivatives and pharmaceutical composition thereof” (priority 1990, dated 1997).
# Read-outs that look alike come from different tables or passages of the source.
# Legend:
# xanthine oxidase = target: T1, xanthine oxidase (Bos taurus, UniProt P80457); test: In vitro determination of xanthine oxidase (XOD) inhibition; assay type: biochemical; conditions: xanthine oxidase from butter milk, xanthine substrate, pH 7.4, 37° C.
# T1 construct: purchased Sigma Chemical Company; host or cells: butter milk
# T1 sequence (P80457 whole entry): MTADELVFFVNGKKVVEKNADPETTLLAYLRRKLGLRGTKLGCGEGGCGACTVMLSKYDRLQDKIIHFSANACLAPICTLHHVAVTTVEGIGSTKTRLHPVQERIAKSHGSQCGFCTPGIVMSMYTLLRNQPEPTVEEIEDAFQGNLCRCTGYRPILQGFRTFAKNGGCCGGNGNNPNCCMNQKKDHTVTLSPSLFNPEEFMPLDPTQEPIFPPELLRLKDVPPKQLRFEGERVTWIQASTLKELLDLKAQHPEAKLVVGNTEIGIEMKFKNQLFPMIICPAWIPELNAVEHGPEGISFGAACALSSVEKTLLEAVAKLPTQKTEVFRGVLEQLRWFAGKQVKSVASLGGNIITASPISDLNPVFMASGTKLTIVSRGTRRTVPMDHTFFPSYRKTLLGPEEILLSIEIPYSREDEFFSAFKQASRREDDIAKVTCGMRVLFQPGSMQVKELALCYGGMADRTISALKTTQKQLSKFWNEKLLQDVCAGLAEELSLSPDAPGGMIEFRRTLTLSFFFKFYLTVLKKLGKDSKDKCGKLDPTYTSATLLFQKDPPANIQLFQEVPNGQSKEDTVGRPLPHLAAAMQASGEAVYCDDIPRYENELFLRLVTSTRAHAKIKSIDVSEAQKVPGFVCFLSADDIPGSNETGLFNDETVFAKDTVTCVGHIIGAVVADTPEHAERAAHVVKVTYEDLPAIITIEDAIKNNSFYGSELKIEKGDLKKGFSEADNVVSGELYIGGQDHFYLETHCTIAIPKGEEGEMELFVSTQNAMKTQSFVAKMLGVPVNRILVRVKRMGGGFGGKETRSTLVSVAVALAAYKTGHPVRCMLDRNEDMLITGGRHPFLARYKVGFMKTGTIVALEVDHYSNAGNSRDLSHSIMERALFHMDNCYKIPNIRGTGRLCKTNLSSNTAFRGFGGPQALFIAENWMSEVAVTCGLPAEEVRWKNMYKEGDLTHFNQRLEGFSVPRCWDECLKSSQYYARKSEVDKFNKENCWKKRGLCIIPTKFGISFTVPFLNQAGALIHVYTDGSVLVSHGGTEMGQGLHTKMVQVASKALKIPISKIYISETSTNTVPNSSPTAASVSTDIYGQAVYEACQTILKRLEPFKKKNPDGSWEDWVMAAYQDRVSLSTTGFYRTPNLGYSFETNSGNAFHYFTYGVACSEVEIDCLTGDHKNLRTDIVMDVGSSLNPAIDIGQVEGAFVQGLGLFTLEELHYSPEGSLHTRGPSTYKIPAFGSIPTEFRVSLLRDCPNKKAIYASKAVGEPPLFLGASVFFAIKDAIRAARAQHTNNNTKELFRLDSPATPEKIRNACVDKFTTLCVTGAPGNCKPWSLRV
# Experimental: (1) Preparation of test compounds:
# Test compounds (compounds of Ex. No. listed in Table 1) were dissolved in dimethylsulfoxide and diluted with a 50 mM phosphate buffer to prepare aqueous solutions respectively having predetermined concentrations.
# The inhibition rate was determined by the following equation: [formula]
# The inhibition (%) was determined on each test compound prepared according to (1), and the IC50 value on the xanthine oxidase (XOD) inhibition was calculated from the value of inhibition.
# serum uric acid = test: Determination of oral administration: lowering of serum uric acid in mice; assay type: in vivo, ICR male mice; conditions: Mus musculus, read-out: Activity of lowering uric acid
# Experimental: Test compounds suspended in a 5% gum arabic solution was forcibly administered by oral administration (compounds of Ex. No. of Table 2, dose: 1 mg/kg) to ICR male mice (age: about 7 weeks) (one group: 6 mice) by means of an oral probe. 2 hours after the administration, thoracotomy was conducted under etherization to collect blood from the heart, and serum was removed by a conventional process. The serum uric acid was measured by a biochemical automatic analyzer (Flexigem; Electro-Nucleonics, Inc.) by using a uric acid measurement kit (UA reagent; International Reagent) to determine the percentage of the lowering of uric acid. [formula]
# [1] = ICR male mice, oral, 1 mg/kg, 2 hours after administration, serum
SMILES,IC50 (xanthine oxidase) [nM],inhibition in vivo at 1 mg/kg (serum uric acid; [1]) [%],"inhibition in vivo at 1 mg/kg (serum uric acid; po, 2 h) [%]"
"Cc1nc(-c2ccc(N(C)C)cc2)sc1C(=O)O [Example 18, 2-(4-(N,N-dimethylamino)phenyl)-4-methyl-5-thiazolecarboxylic acid]",43,22,
"COc1nc(-c2ccc(OC(C)C)cc2)sc1C(=O)O [Example 23, 2-(4-isopropoxyphenyl)-4-methoxy-5-thiazolecarboxylic acid]",130,,
"Cc1nc(-c2cc([N+](=O)[O-])ccc2Cl)sc1C(=O)O [Example 24, 2-(2-Chloro-5-nitrophenyl)-4-methyl-5-thiazolecarboxylic acid]",67,,
"CC(=O)c1cc(-c2nc(C)c(C(=O)O)s2)ccc1O [Example 25, 2-(3-Acetyl-4-hydroxyphenyl) -4-methyl-5-thiazolecarboxylic acid]",300,,
"Cc1nc(-c2ccc(OCC(C)C)c([N+](=O)[O-])c2)sc1C(=O)OCC(C)C [Example 48, Isobutyl 2-(4-isobutyloxy-3-nitrophenyl)-4-methyl-5-thiazolecarboxylate]",,88,
"Cc1nc(-c2ccc(C(=O)N(C)c3ccc(Cl)cc3)cc2)sc1C(=O)O [Example 17, 2-(4-(N-(4-chlorophenyl)-N-methylcarbamoyl)phenyl)-4-methyl-5-thiazolecarboxylic acid]",500,,
"Cc1nc(-c2ccc(OCC(C)C)c(C#N)c2)sc1C(=O)O [Example 77, 2-(3-Cyano-4-isobutyloxyphenyl)-4-methyl-5-thiazolecarboxylic acid]",,,95
"O=C(O)c1sc(-c2cccc(Cl)c2)nc1O [Example 21, 2-(3-chlorophenyl)-4-hydroxy-5-thiazolecarboxylic acid]",720,,
"Cc1nc(-c2cccc(C(=O)O)c2)sc1C(=O)O [Example 13, 2-(3-carboxyphenyl)-4-methyl-5-thiazolecarboxylic acid]",320,,
"Cc1cc(-c2nc(C)c(C(=O)O)s2)cc(C)c1O [Example 30, 2-(3,5-Dimethyl-4-hydroxyphenyl)-4-methyl-5-thiazolecarboxylic acid]",42,,
"Oc1ncnc2[nH]ncc12 [allopurinol, reference compound]",,,73
"Cc1nc(-c2cc(C(C)(C)C)c(O)c(C(C)(C)C)c2)sc1C(=O)O [Example 29, 2-(3,5-Di-t-butyl-4-hydroxyphenyl)-4-methyl-5-thiazolecarboxylic acid]",65,,
"Cc1nc(-c2ccc(OCc3ccc(F)cc3)cc2)sc1C(=O)O [Example 10, 2-(4-(4-Fluorobenzyloxy)phenyl)-4-methyl-5-thiazolecarboxylic acid]",31,,
"Cc1nc(-c2ccc(OC(C)C)cc2)sc1C(=O)O [Example 2, 2-(4-isopropoxyphenyl)-4-methyl-5-thiazolecarboxylic acid]",28,,
"Cc1nc(-c2ccc(OC(C)C)c([N+](=O)[O-])c2)sc1C(=O)OC(C)C [Example 47, isopropyl 2-(4-isopropoxy-3-nitrophenyl)-4-methyl-5-thiazolecarboxylate]",,92,
"Cc1nc(-c2ccc([N+](=O)[O-])cc2)sc1C(=O)O [Example 4, 4-methyl-2-(4-nitrophenyl)-5-thiazolecarboxylic acid]",900,,
"Cc1nc(-c2ccc(C(=O)Nc3ccc(Cl)cc3)cc2)sc1C(=O)O [Example 16, 2-(4-(4-Chlorophenylcarbamoyl)phenyl)-4-methyl-5-thiazolecarboxylic acid]",,,21
"Cc1nc(-c2ccc(OC(C)C)c(C#N)c2)sc1C(=O)O [Example 76, 2-(3-cyano-4-isopropoxyphenyl)-4-methyl-5-thiazolecarboxylic acid]",,,86
"Cc1nc(-c2ccc(OCc3ccc(Cl)cc3)cc2)sc1C(=O)O [Example 9, 2-(4-(4-Chlorobenzyloxy)phenyl)-4-methyl-5-thiazolecarboxylic acid]",17,,

# More lines, in order of falling IC50 (xanthine oxidase), values ahead:
IC50 (xanthine oxidase) [nM],SMILES,inhibition in vivo at 1 mg/kg (serum uric acid; [1]) [%],"inhibition in vivo at 1 mg/kg (serum uric acid; po, 2 h) [%]"
14,"Cc1nc(-c2cccc([N+](=O)[O-])c2)sc1C(=O)O [Example 3, 4-methyl-2-(3-nitrophenyl)-5-thiazolecarboxylic acid]",,
12,"Cc1nc(-c2cccc(C(=O)c3ccccc3)c2)sc1C(=O)O [Example 19, 2-(3-Benzoylphenyl)-4-methyl-5-thiazolecarboxylic acid]",,
3.2,"Cc1nc(-c2ccc(OCCCC3CCCCC3)cc2)sc1C(=O)O [Example 8, 2-(4-(3-Cyclohexylpropyloxy)phenyl)-4-methyl-5-thiazolecarboxylic acid]",28,
2.9,"CCOCCOc1ccc(-c2nc(C)c(C(=O)O)s2)cc1[N+](=O)[O-] [Example 39, 2-(4-(2-Ethoxyethyloxy)-3-nitrophenyl)-4-methyl-5-thiazolecarboxylic acid]",82,
2.9,"Cc1nc(-c2ccc(OCC(C)(C)C)c(C(F)(F)F)c2)sc1C(=O)O [Example 84, 4-Methyl-2-(4-neopentyloxy-3-trifluoromethylphenyl)-5-thiazolecarboxylic acid]",80,
2.7,"CCC(CC)COc1ccc(-c2nc(C)c(C(=O)O)s2)cc1Cl [Example 53, 2-(3-Chloro-4-(2-ethylbutyloxy)phenyl)-4-methYl-5-thiazolecarboxylic acid]",29,
2.7,"Cc1nc(-c2ccc(N3CCCCC3)c(C#N)c2)sc1C(=O)O [Example 82, 2-(3-Cyano-4-piperidinophenyl)-4-methyl-5-thiazolecarboxylic acid]",93,
2.2,"Cc1nc(-c2cc(Cl)c(OC(C)C)c(Cl)c2)sc1C(=O)O [Example 68, 2-(3,5-dichloro-4-isopropoxyphenyl)-4-methyl-5-thiazolecarboxylic acid]",13,
2.2,"Cc1nc(-c2ccc(OCCC(C)C)c(C#N)c2)sc1C(=O)O [Example 79, 2-(3-Cyano-4-isopentyloxyphenyl)-4-methyl-5-thiazolecarboxylic acid]",89,
2,"Cc1nc(-c2ccc(Sc3ccc(Cl)cc3)c(Cl)c2)sc1C(=O)O [Example 61, 2-(3-Chloro-4-(4-chlorophenylthio)phenyl)-4-methyl-5-thiazolecarboxylic acid]",32,
2,"CCC(CC)COc1ccc(-c2nc(C)c(C(=O)O)s2)cc1[N+](=O)[O-] [Example 42, 2-(4-(2-Ethylbutyloxy)-3-nitrophenyl)-4-methyl-5-thiazolecarboxylic acid]",75,
1.5,"Cc1nc(-c2ccc(OCCN3CCOCC3)c(Cl)c2)sc1C(=O)O [Example 56, 2-(3-Chloro-4-(2-morpholinoethyloxy)phenyl)-4-methyl-5-thiazolecarboxylic acid]",50,
1.1,"Cc1nc(-c2ccc(OCC(C)C)c(C(F)(F)F)c2)sc1C(=O)O [Example 83, 2-(4-isobutyloxy-3-trifluomethylphenyl)-4-methyl-5-thiazolecarboxylic acid]",86,
0.94,"Cc1nc(-c2ccc(OCC(C)C)c(Br)c2)sc1C(=O)O [Example 63, 2-(3-bromo-4-isobutyloxyphenyl)-4-methyl-5-thiazolecarboxylic acid]",35,
0.8,"CCC(CC)COc1c(Cl)cc(-c2nc(C)c(C(=O)O)s2)cc1Cl [Example 70, 2-(3,5-Dichloro-4-(2-ethylbutyloxy)phenyl)-4-methyl-5-thiazolecarboxylic acid]",15,
0.57,"Cc1nc(-c2ccc(OC(C)C)c([N+](=O)[O-])c2)sc1C(=O)O [Example 31, 2-(4-isopropoxy-3-nitrophenyl)-4-methyl-5-thiazolecarboxylic acid]",90,
0.38,"Cc1nc(-c2ccc(N3CCOCC3)c(Cl)c2)sc1C(=O)O [Example 59, 2-(3-chloro-4-morpholinophenyl)-4-methyl-5-thiazolecarboxylic acid]",62,
0.36,"CCOc1ccc(-c2nc(C)c(C(=O)O)s2)cc1[N+](=O)[O-] [Example 33, 2-(4-Ethoxy-3-nitrophenyl)-4-methyl-5-thiazolecarboxylic acid]",71,
0.32,"CCCCCCOc1ccc(-c2nc(C)c(C(=O)O)s2)cc1[N+](=O)[O-] [Example 41, 2-(4-n-Hexyloxy-3-nitrophenyl)-4-methyl-5-thiazolecarboxylic acid]",92,
0.18,"Cc1nc(-c2ccc(OCC3CCCCC3)c([N+](=O)[O-])c2)sc1C(=O)O [Example 32, 2-(4-Cyclohexylmethyloxy-3-nitrophenyl)-4-methyl-5-thiazolecarboxylic acid]",48,
0.12,"Cc1nc(-c2ccc(OCC(C)(C)C)c(I)c2)sc1C(=O)O [Example 85, 2-(3-iodo-4-neopentyloxyphenyl)-4-methyl-5-thiazolecarboxylic acid]",77,
0.02,"Cc1nc(-c2ccc(Sc3ccc(Cl)cc3)c([N+](=O)[O-])c2)sc1C(=O)O [Example 36, 2-(4-(4-chlrophenyl)thio-3-nitrophenyl)-4-methyl-5thiazolecarboxylic acid]",14,
